Experimental data taken from article PMC4503722, “Novel Phenotypic Outcomes Identified for a Public Collection of Approved Drugs from a Publicly Accessible Panel of Assays” (PLoS ONE, 2015).
Where a name gives a salt, the structure may show the parent alone. Read-outs that look alike come from different tables or passages of the source.

Legend:
Assay in all cases: cells
HCT116 = type: cell-based
[1] = tested on: nuclear β-catenin in C2C12 cells; type: cell-based
DLD-1 = type: cell-based
SW480 = type: cell-based
INS-1E cells = type: cell-based, rat
[2] = tested on: HCT116 cells treated with a GSK3β inhibitor; type: cell-based
[3] = tested on: endothelial tube formation in co-cultures of ECFCs and ADSCs treated with VEGF; type: cell-based, human
HeLa cells = type: cell-based; details: for EC50: read-out: CellCycle G2/M
NCI-H716 cells = type: cell-based, Human
[4] = Homo sapiens, HCT-116, 72 h, read-out: HCT-116 viab. IC50, Table 2, basal, 72 h, Cell TiterGlo, non-adherent, 20 coded
[5] = Mus musculus, C2C12, Table 2; C2C12; […]; 20 / 20.1 coded; read-out: Wnt pot. EC50
[6] = Homo sapiens, DLD-1, 72 h, Table 2, 72 h, Cell TiterGlo, non-adherent, 20 coded, read-out: DLD-1 viab. IC50
[7] = Homo sapiens, SW480, 72 h, Table 2, 72 h, Cell TiterGlo, non-adherent, 20 coded, read-out: SW480 viab. IC50
[8] = Rattus norvegicus, INS-1E; read-out: Ins. sec. EC50
[9] = Rattus norvegicus, INS-1E; read-out: Insulin Secretion
[10] = Homo sapiens, HeLa, S2 Table, HeLa, 20 = no response at highest concentration
[11] = Homo sapiens, NCI-H716; read-out: GLP1 sec. EC50
[12] = Homo sapiens, HCT-116, basal, read-out: Basal_Viability ATP HCT116
[13] = Mus musculus, C2C12, IC50 / EC50; C2C12 beta-catenin translocation; read-out: Wnt Pathway
[14] = Homo sapiens, DLD-1, basal, read-out: Basal_Viability ATP DLD-1
[15] = Homo sapiens, SW480, basal, read-out: Basal_Viability ATP SW480
[16] = Rattus norvegicus; IC50 / EC50; INS-1E; read-out: Insulin Secretion
[17] = Homo sapiens, HCT-116, GSK3b inhibitor pretreated, read-out: GSK3b inh pretreated_Viability ATP HCT116
[18] = Homo sapiens, IC50 / EC50; endothelial tube area, ADSC/ECFC co-culture; read-out: Anti-Angiogenesis
[19] = Homo sapiens, HeLa, IC50 / EC50, HeLa
[20] = Homo sapiens; IC50 / EC50; NCI-H716; read-out: GLP 1 Secretion
[21] = Homo sapiens, HCT-116, basal, HCT116, read-out: Basal_Viability ATP HCT116
[22] = Homo sapiens, DLD-1, basal, DLD-1, read-out: Basal_Viability ATP DLD-1
[23] = Homo sapiens, SW480, basal, SW480, read-out: Basal_Viability ATP SW480
[24] = Homo sapiens, HCT-116, HCT116 pretreated with GSK3b inhibitor, read-out: GSK3b inh pretreated_Viability ATP HCT116
[25] = Homo sapiens; read-out: Anti-Angiogenesis
[26] = Homo sapiens, NCI-H716; read-out: GLP 1 Secretion

## CC[C@H](C)C(=O)O[C@H]1C[C@@H](C)C=C2C=C[C@H](C)[C@H](CC[C@@H]3C[C@@H](O)CC(=O)O3)[C@H]21 [lovastatin, reference compound]
HCT116; Homo sapiens, HCT-116, read-out: Basal_Viability ATP HCT116
  IC50: 1.75 µM
[1]; Mus musculus, C2C12, read-out: Wnt Pathway
  EC50: > 10 µM
DLD-1; Homo sapiens, DLD-1, read-out: Basal_Viability ATP DLD-1
  IC50: 19.2 µM
SW480; Homo sapiens, SW480, read-out: Basal_Viability ATP SW480
  IC50: 4.73 µM
INS-1E cells; Rattus norvegicus, INS-1E, read-out: Insulin Secretion
  EC50: > 10 µM
[2]; Homo sapiens, HCT-116, read-out: GSK3b inh pretreated_Viability ATP HCT116
  IC50: 7.36 µM
[3]; Homo sapiens, read-out: Anti-Angiogenesis
  IC50: 3.27 µM
HeLa cells; Homo sapiens, HeLa
  EC50: > 10 µM
NCI-H716 cells; Homo sapiens, NCI-H716, read-out: GLP 1 Secretion
  EC50: > 20 µM

## Cc1ccc(S(=O)(=O)NC(=O)NN2CC3CCCC3C2)cc1 (centres unmarked) [gliclazide, reference compound]
HCT116; [4]
  IC50: > 20 µM
[1]; [5]
  EC50: > 10 µM
DLD-1; [6]
  IC50: > 20 µM
SW480; [7]
  IC50: > 20 µM
INS-1E cells; [8]
  EC50: 1.8 µM
INS-1E cells; [9]
  EC50: 1.83 µM
[2]; Homo sapiens, HCT-116, read-out: HCT-116 (GSK3β) viab. IC50, Table 2, GSK3β inhibitor LY2090314 20 nM, 72 h, Cell TiterGlo, 20 coded
  IC50: > 20 µM
[3]; Homo sapiens, Table 2; primary assay tube area; 20 = no response in concentration-response, 20.1 = inactive in single concentration testing; read-out: Anti-Angio IC50
  IC50: > 10 µM
HeLa cells
  G2/M IC50 / EC50: 20 (values shown as 20 indicate that the compound was tested in concentration-response and showed no response at the highest concentration tested (e.g. IC50 > 20 μM))
HeLa cells; [10]
  EC50: > 10 µM
NCI-H716 cells; [11]
  EC50: > 10 µM

## CCCCCCCCCCCCCCCC[N+](C)(C)Cc1ccccc1 [Cetalkonium chloride]
HCT116; [12]
  IC50: 3.47 µM
[1]; [13]
  EC50: > 10 µM
DLD-1; [14]
  IC50: 3.92 µM
SW480; [15]
  IC50: 5.17 µM
INS-1E cells; [16]
  EC50: > 10 µM
[2]; [17]
  IC50: 6.25 µM
[3]; [18]
  IC50: 2.53 µM
HeLa cells; [19]
  EC50: > 10 µM
NCI-H716 cells; [20]
  EC50: > 10 µM

## C[C@@H]1C[C@H]2[C@@H]3CCC4=CC(=O)C=C[C@]4(C)[C@@]3(Cl)[C@@H](O)C[C@]2(C)[C@@]1(OC(=O)c1ccco1)C(=O)CCl [Mometasone furoate]
HCT116; [21]
  IC50: 14.5 µM
[1]; Mus musculus, C2C12, S2 Table; module primary assay; 20 / 20.1 codes per legend; read-out: Wnt Pathway
  EC50: > 10 µM
DLD-1; [22]
  IC50: 8.42 µM
SW480; [23]
  IC50: 4.89 µM
INS-1E cells; [9]
  EC50: > 10 µM
[2]; [24]
  IC50: > 20 µM
[3]; [25]
  IC50: 4.99 µM
HeLa cells; [10]
  EC50: > 10 µM
NCI-H716 cells; [26]
  EC50: > 10 µM

## CCOc1ccc2nc3cc(N)ccc3c(N)c2c1 [Acrinol]
HCT116; read-out: Basal_Viability ATP HCT116
  IC50: 15.7 µM
[1]; read-out: Wnt Pathway
  EC50: > 10 µM
DLD-1; read-out: Basal_Viability ATP DLD-1
  IC50: > 20 µM
SW480; read-out: Basal_Viability ATP SW480
  IC50: 3.23 µM
INS-1E cells; read-out: Insulin Secretion
  EC50: > 10 µM
[2]; read-out: GSK3b inh pretreated_Viability ATP HCT116
  IC50: 5.92 µM
[3]; read-out: Anti-Angiogenesis
  IC50: 4.94 µM
HeLa cells
  EC50: > 10 µM
NCI-H716 cells; read-out: GLP 1 Secretion
  EC50: > 10 µM

## Nc1nc(=O)n([C@@H]2O[C@H](CO)[C@@H](O)[C@@H]2F)cc1I [Fiacitabine]
HCT116; [12]
  IC50: > 20 µM
[1]; [13]
  EC50: > 10 µM
DLD-1; [14]
  IC50: > 20 µM
SW480; [15]
  IC50: > 20 µM
INS-1E cells; [16]
  EC50: > 10 µM
[2]; [17]
  IC50: > 20 µM
[3]; [18]
  IC50: 3.47 µM
HeLa cells; [19]
  EC50: > 10 µM
NCI-H716 cells; [20]
  EC50: > 10 µM

## CCCCc1ccc2[nH]c(NC(=O)OC)nc2c1 [parbendazole]
HCT116; [21]
  IC50: 0.118 µM
[1]; Mus musculus, C2C12; read-out: Wnt Pathway
  EC50: 0.0336 µM
DLD-1; [22]
  IC50: 0.64 µM
SW480; [23]
  IC50: 1.99 µM
INS-1E cells; [9]
  EC50: > 10 µM
[2]; [24]
  IC50: 0.105 µM
[3]; [25]
  IC50: 0.053 µM
HeLa cells; [10]
  EC50: 0.0106 µM
NCI-H716 cells; [26]
  EC50: > 10 µM

## CC(C)OC(=O)OCOP(=O)(CO[C@H](C)Cn1cnc2c(N)ncnc21)OCOC(=O)OC(C)C [Tenofovir disoproxil fumarate]
HCT116; [12]
  IC50: > 20 µM
[1]; [13]
  EC50: > 10 µM
DLD-1; [14]
  IC50: 19.6 µM
SW480; [15]
  IC50: > 20 µM
INS-1E cells; [16]
  EC50: > 10 µM
[2]; [17]
  IC50: > 20 µM
[3]; [18]
  IC50: 3.84 µM
HeLa cells; [19]
  EC50: > 10 µM
NCI-H716 cells; [20]
  EC50: > 10 µM

## Cc1ccc(Nc2nccc(N(C)c3ccc4c(C)n(C)nc4c3)n2)cc1S(N)(=O)=O [pazopanib, reference compound]
HCT116; [4]
  IC50: > 20 µM
[1]
  activity in the Wnt potentiation module (in words): None of these agents, however, possessed appreciable activity
[1]; [5]
  EC50: > 10 µM
DLD-1; [6]
  IC50: > 20 µM
SW480; [7]
  IC50: 5.7 µM
SW480; [23]
  IC50: 5.68 µM
INS-1E cells; [8]
  EC50: > 10 µM
[2]; Homo sapiens, HCT-116, 72 h, read-out: HCT-116 (GSK3β) viab. IC50
  IC50: > 20 µM
[3]; Homo sapiens; read-out: Anti-Angio IC50
  IC50: 0.047 µM
[3]; [25]
  IC50: 0.0465 µM
HeLa cells; [10]
  EC50: > 10 µM
NCI-H716 cells; [11]
  EC50: > 10 µM
